In patent EP2511272B1, “Synthetic analogues of abscisic acid with anti-inflammatory and insulin release stimulation effects on human cells” (Universita' degli Studi di Genova, priority 2011, dated 2012):

Tested on: human granulocytes
Test: Determination of intracellular cAMP levels (inhibition of ABA-induced cAMP increase)
Format: cell-based
Experimental: Human granulocytes, after being incubated overnight (ON) in DMEM/F12 supplemented with 10% of foetal bovine serum (FCS), penicillin (50 units/ml) and streptomycin (50 µg/ml) (DMEM/F12 complete), were centrifuged at 200xg for 5 min and were then resuspended in HBSS (Hanks' Balanced Salt Solution) with calcium and magnesium (15 x 10^6 cells /200 µl) and preincubated for 5 minutes at 25 °C in the presence of 10 µM of phosphodiesterase inhibitor 4-[(3-butoxy-4-methoxyphenyl)-methyl]-2-imidazolidinone (Ro-20-1724). Two hundred (200) µl of suspension were then drawn and were incubated for 1 minute with 1 µM ABA (Sigma-Aldrich) either alone, or in the presence of decreasing concentrations (from 50 µM to 0.01 nM) of test compounds obtained according to the preceding examples. The reaction was terminated by the addition of 13 µl of perchloroacetic acid (PCA) to the end concentration of 0.6 M at 4 °C.
The cell lysates were centrifuged for 5 min at 17,000 x g at 4 °C and the supernatant was adjusted at pH 7.5 with 3 M potassium carbonate (K2CO3). The reaction led to the development of gas CO2 and the formation of a white precipitate of potassium perchlorate (KClO4), which was removed by a 5-minute centrifugation at 17,000xg at 4 °C.
Intracellular concentration of cAMP was determined by means of the competitive radioimmunological test [^3H]cAMP assay system (Amersham, GE Healthcare), following manufacturer's instructions..
The experiments were carried out three times, in triplicate.
Tests were carried out on human granulocytes according to the above explained procedure, in which the production of cAMP was compared to a group of control cells in case of treatment with ABA 1 µM and with ABA 1 µM + tested compound 50 µM.

In the case of `CC(=C/C(=O)O)/C=C/C1(O)C(C)(C)CC(=O)C2OC21C` (single isomer, unassigned) [Example 1, trans, 2'α,3'α-dihydro-2'α,3'α-epoxyabscisic acid], the inhibition at 50 µM (ABA 1 µM + tested compound 50 µM, read-out: inhibition (production of cAMP)) is reported as 100%, the inhibition at 10 pM (cAMP increase induced by 1 µM ABA, compound 0.01 nM) is reported as 0% and the inhibition at 0.0001 µM (cAMP increase induced by 1 µM ABA, compound 0.1 nM) is reported as 25%. For the same compound, the inhibition at 0.001 µM (cAMP increase induced by 1 µM ABA, compound 1 nM) was 57%, the inhibition at 0.1 µM (cAMP increase induced by 1 µM ABA, compound 100 nM) was 100% and the inhibition at 1 µM (cAMP increase induced by 1 µM ABA, compound 1 µM) was 100%. For the same compound, the inhibition at 5 µM (cAMP increase induced by 1 µM ABA, compound 5 µM) was 100%, the inhibition at 10 µM (cAMP increase induced by 1 µM ABA, compound 10 µM) was 100% and the IC50 (increase in cAMP concentration induced by 1 µM ABA) was about 1 nM.
